Laboratory results reported in patent publication US20250002954A1, “Novel Compound, Use Thereof, and Method for Producing Same, and Compound-Containing Composition, Method for Producing 4-Trehalosamine, and Microorganism” (Microbial Chemistry Research Foundation, priority 2021, published 2025).

What was measured:
[1] = Dynamic viscoelasticity measurement of corn starch gel; type: physicochemical; conditions: corn starch gel with 10% aqueous solution, 4° C., after 96 hours
Protocol: In 20-mL glass vials, corn starch (manufactured by FUJIFILM Wako Pure Chemical Corporation) was mixed with each of the 10% aqueous solution of 4-trehalosamine (4TA), 10% aqueous solution of trehalose (TRH), 10% aqueous solution of sucrose (SCR), and 10% aqueous solution of glycerol (GOL), which are the test samples, or water as control to a final concentration of 15% (w/w) and uniformly suspended, and the suspensions were autoclaved at 121° C. for 20 minutes to gel them. For each of them, 0-hour sample and 96-hour sample were prepared.
After cooling them to room temperature, dynamic viscoelasticity measurement was performed on the 0-hour sample within 4 hours. The 96-hour sample was left to stand at 4° C. for 96 hours and then subjected to dynamic viscoelasticity measurement.
The dynamic viscoelasticity measurement was performed using a MCR300 rheometer (manufactured by Physica, Stuttgart, Germany) under the condition of the gap of a 25-mm parallel plate measurement tool being 1.0 mm. Under the conditions of a fixed frequency of 1.0 Hz, a strain amplitude of 1%, and 25° C., a storage modulus (G′) and a loss modulus (G″) were measured and a loss tangent (tan δ=G″/G′) was calculated. In FIG. 15K, the value of tan δ is indicated on the vertical axis (n=5, mean±S.D.).

[2] = tested on: aggregated proteins Q74 and SynA53T in SH-SY5Y cells and NH-12 cells; test: Elimination effect on aggregated protein in cells (Q74, SynA53T); type: cell-based, human; conditions: 100 mM 4-trehalosamine, 70 μM IMCTA-C14 or 100 mM trehalose, 14 hours; SH-SY5Y and NH-12 cells
Protocol: The effect of 4-trehalosamine or trehalose analog on Q74, which is partial peptide of huntingtin (Htt), the causal protein of Huntington's disease, and SynA53T, which is a mutation of α-synuclein, the causal protein of Parkinson's disease, (both aggregated proteins) was determined in the following manner.
Neuroblastoma cells SH-SY5Y (obtained from European Collection of Authenticated Cell Cultures (ECACC)) and human neuroblastoma cells NH-12 (obtained from RIKEN BRC) were each inoculated at 14×10^4 cells/mL and cultured in DMEM culture medium at 37° C. for 48 hours.
After the culture of SH-SY5Y cells and NH-12 cells, pEGFP-Q74 vector or EGFP-alphasynuclein-A53T (both obtained from addgene), which are expression vectors of aggregated protein, were transfected with transfection reagent (Viafect, manufactured by Promega). After 24 hours from the transfection, 100 mM 4-trehalosamine, 70 μM IMCTA-C14, or 100 mM trehalose was added and the cells were further treated for 14 hours. Untreated cells without addition of the compounds were used as control. After washing the cells three times with PBS, hyposmotic fluid (solution of one tablet of cOmplete, Mini, EDTA-free Protease Inhibitor Cocktail (CM, manufactured by Merck) in 50 mL of pure water) was added and the mixture was shaken on ice for 10 minutes. It was then centrifuged at 21,300×g for 10 minutes to be separated into soluble protein (Sol) and aggregated protein (Agg) […]. Thereafter, they were turned into samples for western blotting in a similar manner to test example 10-1.
The western blotting was performed in a similar manner to test example 4 except that anti-GFP antibody (manufactured by Proteintech) was used at 1/5,000 dilution and anti-LC3 antibody (manufactured by Cell Signaling Technology) was used at 1/2,000 dilution as the primary antibodies in the method described in test example 4. The results for neuroblastoma cells SH-SY5Y are shown in FIGS. 22A and 22B, and the results for human neuroblastoma cells NH-12 are shown in FIGS. 22C and 22D. […]

Structure (SMILES)	change in loss tangent (tan δ) value [1]	aggregate of Q74 and aggregate of SynA53T [2]
N[C@H]1[C@H](O)[C@@H](O)[C@@H](O[C@H]2O[C@H](CO)[C@@H](O)[C@H](O)[C@H]2O)O[C@@H]1CO [4-trehalosamine]	little change or a slight increase in the loss tangent value	significantly decreased
OC[C@H]1O[C@H](O[C@H]2O[C@H](CO)[C@@H](O)[C@H](O)[C@H]2O)[C@H](O)[C@@H](O)[C@@H]1O [trehalose, reference compound]		significantly decreased
